Data taken from US11083725B2 (priority 2014, dated 2021).

Test system: NHBE cells
Assay: Biolog metabolic array: substrate use by NHBE cells with or without CA09 infection
Type: cell-based, human
Settings: for Substrate use, 590 nm absorbance normalized to zero hour, 0 hr: Biolog PMM2, 0 hr; for Substrate use, 590 nm absorbance normalized to zero hour, 1 hr: Biolog PMM2, 1 hr; for Substrate use, 590 nm absorbance normalized to zero hour, 5 hr: Biolog PMM2, 5 hr; for Substrate use, 590 nm absorbance normalized to zero hour, 7 hr: Biolog PMM2, 7 hr
[1] = Control (uninfected) NHBE cells
[2] = Virus (CA09-infected NHBE cells, MOI 1)
[3] = Virus: CA09-infected NHBE cells, MOI 1, Biolog PMM2
[4] = Virus (CA09-infected, MOI 1) NHBE cells
[5] = Virus (CA09, MOI 1) infected NHBE cells

## OC[C@@H](O)[C@@H](O[C@H]1O[C@H](CO)[C@@H](O)[C@H](O)[C@H]1O)[C@H](O)[C@@H](O)CO [Maltitol]
[1]
  590 nm absorbance normalized to zero hour (substrate use), 0 hr: 1.00
  590 nm absorbance normalized to zero hour (substrate use), 1 hr: 1.76
  590 nm absorbance normalized to zero hour (substrate use), 2 hr: 2.36
  590 nm absorbance normalized to zero hour (substrate use), 3 hr: 2.82
  590 nm absorbance normalized to zero hour (substrate use), 4 hr: 3.07
  590 nm absorbance normalized to zero hour (substrate use), 6 hr: 3.52
  590 nm absorbance normalized to zero hour (substrate use), 8 hr: 4.77
  590 nm absorbance normalized to zero hour (substrate use), 9 hr: 5.77
  590 nm absorbance normalized to zero hour (substrate use), 10 hr: 5.24
  590 nm absorbance normalized to zero hour (substrate use), 11 hr: 5.98
  Substrate use, 590 nm absorbance normalized to zero hour, 0 hr: 1.00
  Substrate use, 590 nm absorbance normalized to zero hour, 1 hr: 1.76
  Substrate use, 590 nm absorbance normalized to zero hour, 5 hr: 3.80
  Substrate use, 590 nm absorbance normalized to zero hour, 7 hr: 4.49
[2]
  590 nm absorbance normalized to zero hour (substrate use), 0 hr: 1.00
  590 nm absorbance normalized to zero hour (substrate use), 1 hr: 1.05
  590 nm absorbance normalized to zero hour (substrate use), 2 hr: 1.03
  590 nm absorbance normalized to zero hour (substrate use), 3 hr: 1.37
  590 nm absorbance normalized to zero hour (substrate use), 4 hr: 0.98
  590 nm absorbance normalized to zero hour (substrate use), 5 hr: 0.88
  590 nm absorbance normalized to zero hour (substrate use), 6 hr: 0.89
  590 nm absorbance normalized to zero hour (substrate use), 7 hr: 0.92
  590 nm absorbance normalized to zero hour (substrate use), 8 hr: 0.96
  590 nm absorbance normalized to zero hour (substrate use), 9 hr: 1.01
  590 nm absorbance normalized to zero hour (substrate use), 10 hr: 1.08
  590 nm absorbance normalized to zero hour (substrate use), 11 hr: 1.16
[3]
  590 nm absorbance normalized to zero hour (substrate use), 0 hr: 1.00
  590 nm absorbance normalized to zero hour (substrate use), 1 hr: 1.05
  590 nm absorbance normalized to zero hour (substrate use), 2 hr: 1.03
  590 nm absorbance normalized to zero hour (substrate use), 3 hr: 1.37
  590 nm absorbance normalized to zero hour (substrate use), 4 hr: 0.98
  590 nm absorbance normalized to zero hour (substrate use), 5 hr: 0.88
  590 nm absorbance normalized to zero hour (substrate use), 6 hr: 0.89
  590 nm absorbance normalized to zero hour (substrate use), 7 hr: 0.92
  590 nm absorbance normalized to zero hour (substrate use), 8 hr: 0.96
  590 nm absorbance normalized to zero hour (substrate use), 9 hr: 1.01
  590 nm absorbance normalized to zero hour (substrate use), 10 hr: 1.08
  590 nm absorbance normalized to zero hour (substrate use), 11 hr: 1.16

## OCC1OC(OC2C(CO)OC(OC3C(CO)OC(O)C(O)C3O)C(O)C2O)C(O)C(O)C1O (centres unmarked) [Malto-triose]
[1]
  590 nm absorbance normalized to zero hour (substrate use), 0 hr: 1.00
  590 nm absorbance normalized to zero hour (substrate use), 1 hr: 2.27
  590 nm absorbance normalized to zero hour (substrate use), 2 hr: 3.36
  590 nm absorbance normalized to zero hour (substrate use), 3 hr: 4.16
  590 nm absorbance normalized to zero hour (substrate use), 4 hr: 4.58
  590 nm absorbance normalized to zero hour (substrate use), 6 hr: 5.62
  590 nm absorbance normalized to zero hour (substrate use), 8 hr: 7.97
  590 nm absorbance normalized to zero hour (substrate use), 9 hr: 7.32
  590 nm absorbance normalized to zero hour (substrate use), 10 hr: 6.88
  590 nm absorbance normalized to zero hour (substrate use), 11 hr: 8.46
  Substrate use, 590 nm absorbance normalized to zero hour, 0 hr: 1.00
  Substrate use, 590 nm absorbance normalized to zero hour, 1 hr: 2.27
  Substrate use, 590 nm absorbance normalized to zero hour, 5 hr: 6.09
  Substrate use, 590 nm absorbance normalized to zero hour, 7 hr: 7.39
[4]
  590 nm absorbance normalized to zero hour (substrate use), 0 hr: 1.00
  590 nm absorbance normalized to zero hour (substrate use), 1 hr: 2.01
  590 nm absorbance normalized to zero hour (substrate use), 2 hr: 3.05
  590 nm absorbance normalized to zero hour (substrate use), 3 hr: 3.70
  590 nm absorbance normalized to zero hour (substrate use), 4 hr: 4.08
  590 nm absorbance normalized to zero hour (substrate use), 5 hr: 5.20
  590 nm absorbance normalized to zero hour (substrate use), 6 hr: 5.81
  590 nm absorbance normalized to zero hour (substrate use), 7 hr: 6.29
  590 nm absorbance normalized to zero hour (substrate use), 8 hr: 6.78
  590 nm absorbance normalized to zero hour (substrate use), 9 hr: 7.44
  590 nm absorbance normalized to zero hour (substrate use), 10 hr: 6.04
  590 nm absorbance normalized to zero hour (substrate use), 11 hr: 6.50
[3]
  590 nm absorbance normalized to zero hour (substrate use), 0 hr: 1.00
  590 nm absorbance normalized to zero hour (substrate use), 1 hr: 2.01
  590 nm absorbance normalized to zero hour (substrate use), 2 hr: 3.05
  590 nm absorbance normalized to zero hour (substrate use), 3 hr: 3.70
  590 nm absorbance normalized to zero hour (substrate use), 4 hr: 4.08
  590 nm absorbance normalized to zero hour (substrate use), 5 hr: 5.20
  590 nm absorbance normalized to zero hour (substrate use), 6 hr: 5.81
  590 nm absorbance normalized to zero hour (substrate use), 7 hr: 6.29
  590 nm absorbance normalized to zero hour (substrate use), 8 hr: 6.78
  590 nm absorbance normalized to zero hour (substrate use), 9 hr: 7.44
  590 nm absorbance normalized to zero hour (substrate use), 10 hr: 6.04
  590 nm absorbance normalized to zero hour (substrate use), 11 hr: 6.50

## OC[C@H]1O[C@H](O[C@H]2[C@H](O)[C@@H](O)[C@H](O)O[C@@H]2CO)[C@H](O)[C@@H](O)[C@@H]1O [Maltose]
[1]
  590 nm absorbance normalized to zero hour (substrate use), 1 hr: 1.07
  590 nm absorbance normalized to zero hour (substrate use), 2 hr: 1.04
  590 nm absorbance normalized to zero hour (substrate use), 3 hr: 1.27
  590 nm absorbance normalized to zero hour (substrate use), 4 hr: 1.22
  590 nm absorbance normalized to zero hour (substrate use), 6 hr: 1.72
  590 nm absorbance normalized to zero hour (substrate use), 8 hr: 1.68
  590 nm absorbance normalized to zero hour (substrate use), 9 hr: 1.97
  590 nm absorbance normalized to zero hour (substrate use), 10 hr: 1.93
  590 nm absorbance normalized to zero hour (substrate use), 11 hr: 2.37
  Substrate use, 590 nm absorbance normalized to zero hour, 1 hr: 1.07
  Substrate use, 590 nm absorbance normalized to zero hour, 5 hr: 1.53
  Substrate use, 590 nm absorbance normalized to zero hour, 7 hr: 1.53
[5]
  Substrate use, 590 nm absorbance normalized to zero hour, 1 hr: 2.29
  Substrate use, 590 nm absorbance normalized to zero hour, 5 hr: 5.22
  Substrate use, 590 nm absorbance normalized to zero hour, 7 hr: 6.41
[4]
  590 nm absorbance normalized to zero hour (substrate use), 1 hr: 2.29
  590 nm absorbance normalized to zero hour (substrate use), 2 hr: 3.23
  590 nm absorbance normalized to zero hour (substrate use), 3 hr: 3.88
  590 nm absorbance normalized to zero hour (substrate use), 4 hr: 4.21
  590 nm absorbance normalized to zero hour (substrate use), 6 hr: 5.86
  590 nm absorbance normalized to zero hour (substrate use), 8 hr: 7.01
  590 nm absorbance normalized to zero hour (substrate use), 9 hr: 8.07
  590 nm absorbance normalized to zero hour (substrate use), 10 hr: 8.77
  590 nm absorbance normalized to zero hour (substrate use), 11 hr: 8.43

## O=C(O)[C@H](O)[C@@H](O)[C@H](O)[C@H](O)CO[C@H]1O[C@H](CO)[C@H](O)[C@H](O)[C@H]1O [Melibionic Acid]
[1]
  590 nm absorbance normalized to zero hour (substrate use), 0 hr: 1.00
  590 nm absorbance normalized to zero hour (substrate use), 1 hr: 0.20
  590 nm absorbance normalized to zero hour (substrate use), 2 hr: 0.76
  590 nm absorbance normalized to zero hour (substrate use), 3 hr: 0.58
  590 nm absorbance normalized to zero hour (substrate use), 4 hr: 0.66
  590 nm absorbance normalized to zero hour (substrate use), 6 hr: 0.40
  590 nm absorbance normalized to zero hour (substrate use), 8 hr: 0.51
  590 nm absorbance normalized to zero hour (substrate use), 9 hr: 0.53
  590 nm absorbance normalized to zero hour (substrate use), 10 hr: 0.57
  590 nm absorbance normalized to zero hour (substrate use), 11 hr: 0.60
  Substrate use, 590 nm absorbance normalized to zero hour, 0 hr: 1.00
  Substrate use, 590 nm absorbance normalized to zero hour, 1 hr: 0.20
  Substrate use, 590 nm absorbance normalized to zero hour, 5 hr: 0.48
  Substrate use, 590 nm absorbance normalized to zero hour, 7 hr: 0.47
[5]
  Substrate use, 590 nm absorbance normalized to zero hour, 0 hr: 1.00
  Substrate use, 590 nm absorbance normalized to zero hour, 1 hr: 3.52
  Substrate use, 590 nm absorbance normalized to zero hour, 5 hr: 3.34
  Substrate use, 590 nm absorbance normalized to zero hour, 7 hr: 3.05
[4]
  590 nm absorbance normalized to zero hour (substrate use), 0 hr: 1.00
  590 nm absorbance normalized to zero hour (substrate use), 1 hr: 3.52
  590 nm absorbance normalized to zero hour (substrate use), 2 hr: 3.58
  590 nm absorbance normalized to zero hour (substrate use), 3 hr: 3.59
  590 nm absorbance normalized to zero hour (substrate use), 4 hr: 3.66
  590 nm absorbance normalized to zero hour (substrate use), 6 hr: 3.22
  590 nm absorbance normalized to zero hour (substrate use), 8 hr: 2.89
  590 nm absorbance normalized to zero hour (substrate use), 9 hr: 2.67
  590 nm absorbance normalized to zero hour (substrate use), 10 hr: 1.66
  590 nm absorbance normalized to zero hour (substrate use), 11 hr: 2.18
